Laboratory results as given in US6737383B1, “Herbicidal oxadiazolidines” (priority 1999, dated 2004).

How the values were obtained:
[1] = test system: wheat; assay: Test B pre/postemergence wheat; format: in vivo, Triticum aestivum
Method in brief: (§1)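 Response is a visual 0-to-10 score relative to untreated plants, where 0 means no effect and 10 means complete control, taken twelve to sixteen days after application. Treatments went onto soil at planting and onto foliage of 1- to 4-leaf plants, using a surfactant-containing non-phytotoxic solvent.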

[2] = test system: wild oat; assay: Test B pre/postemergence wild oat; format: in vivo, Avena fatua
Method in brief: as §1

[3] = test system: cocklebur; assay: Test B pre/postemergence cocklebur; format: in vivo, Xanthium strumarium
Method in brief: as §1

[4] = test system: crabgrass; assay: Test B pre/postemergence crabgrass; format: in vivo, Digitaria sanguinalis
Method in brief: as §1

[5] = Postemergence, Rate 500 g/ha, scale of 0 to 10 where 0 is no effect and 10 is complete control
[6] = Preemergence, Rate 62 g/ha, scale 0 to 10 (0 no effect, 10 complete control)
[7] = Preemergence, Rate 125 g/ha, scale of 0 to 10 where 0 is no effect and 10 is complete control
[8] = Preemergence, Rate 250 g/ha, scale 0 to 10, 0 is no effect, 10 is complete control
[9] = Preemergence, Rate 500 g/ha, scale 0 to 10, 0 is no effect, 10 is complete control
[10] = Postemergence, Rate 125 g/ha, scale 0 to 10, 0 is no effect, 10 is complete control
[11] = Postemergence, Rate 250 g/ha, scale 0 to 10, 0 is no effect, 10 is complete control
[12] = Rate 62 g/ha, Postemergence, scale of 0 to 10 where 0 is no effect and 10 is complete control
[13] = Rate 125 g/ha, Postemergence, scale 0 to 10, 0 is no effect, 10 is complete control
[14] = Postemergence, Rate 250 g/ha, scale 0 to 10
[15] = Preemergence, Rate 62 g/ha, scale of 0 to 10 where 0 is no effect and 10 is complete control
[16] = Rate 62 g/ha, Postemergence, scale 0 to 10, 0 no effect, 10 complete control

SMILES	Wheat plant response rating [1, 5]	Plant response rating, Wheat [1, 6]	Plant response rating, Wheat [1, 7]	Wheat plant response rating [1, 8]	Wheat plant response rating [1, 9]	Wild oats plant response rating [2, 5]	Plant response rating, Wild oats [2, 6]	Plant response rating, Wild oats [2, 7]	Wild oats plant response rating [2, 8]	Wild oats plant response rating [2, 9]	Cocklebur plant response rating [3, 5]	Plant response rating, Cocklebur [3, 6]	Plant response rating, Cocklebur [3, 7]	Cocklebur plant response rating [3, 8]	Cocklebur plant response rating [3, 9]	Cocklebur plant response rating [3, 12]	Crabgrass plant response rating [4, 5]	Plant response rating, Crabgrass [4, 6]	Plant response rating, Crabgrass [4, 7]	Crabgrass plant response rating [4, 9]	also measured
C=CC[Si](C)(C)Cn1c(=O)on(C(=O)N(c2ccc(Cl)cc2)C(C)C)c1=O [Compound 414]	0	0	0	0	0	2	0	0	2	7	0	0	0	0	0	0	9	2	7	10	Plant response rating, Cocklebur [3, 10]: 0; Plant response rating, Cocklebur [3, 11]: 0; Plant response rating, Crabgrass [4, 10]: 3; Plant response rating, Crabgrass [4, 11]: 6; Crabgrass plant response rating [4, 8]: 9; Crabgrass plant response rating [4, 12]: 1
CSCCn1c(=O)on(C(=O)N(c2ccccc2)C(C)C)c1=O [Compound 419]	0	0	0	0	0	0	0	0	0	2	0	0	0	0	0	0	1	0	1	9	Plant response rating, Cocklebur [3, 10]: 0; Plant response rating, Cocklebur [3, 11]: 0; Plant response rating, Crabgrass [4, 10]: 0; Plant response rating, Crabgrass [4, 11]: 0; Crabgrass plant response rating [4, 8]: 4; Crabgrass plant response rating [4, 12]: 0
CC(C)N(C(=O)n1oc(=O)n(CCl)c1=O)c1ccc(Cl)cc1 [Compound 422]	0	0	0	0	0	0	0	0	0	3	0	0	0	0	0	0	0	0	0	0	Wheat plant response rating [1, 13]: 0; Wild oats plant response rating [2, 13]: 0; Plant response rating, Cocklebur [3, 11]: 0; Cocklebur plant response rating [3, 13]: 0; Plant response rating, Crabgrass [4, 11]: 0; Crabgrass plant response rating [4, 8]: 0; Crabgrass plant response rating [4, 12]: 0; Crabgrass plant response rating [4, 13]: 0
CC(C)N(C(=O)n1oc(=O)n(CC2=NOCCC2)c1=O)c1ccccc1 [Compound 430]	0	0	0	0	5	0	0	0	3	3	1	0	0	0	0	0	9	9	10	10	Wheat plant response rating [1, 14]: 0; Wheat plant response rating [1, 13]: 0; Wild oats plant response rating [2, 14]: 0; Wild oats plant response rating [2, 13]: 0; Cocklebur plant response rating [3, 14]: 0; Cocklebur plant response rating [3, 13]: 0; Crabgrass plant response rating [4, 14]: 8; Crabgrass plant response rating [4, 8]: 10; Crabgrass plant response rating [4, 12]: 1; Crabgrass plant response rating [4, 13]: 2
CC(C)N(C(=O)n1oc(=O)n(CC#N)c1=O)c1ccc(F)cc1F [Compound 431]	0	0	0	0	0	0	0	0	2	2	0	0	0	0	–	0	2	0	–	3	Wheat plant response rating [1, 14]: 0; Wheat plant response rating [1, 13]: 0; Wild oats plant response rating [2, 14]: 0; Wild oats plant response rating [2, 13]: 0; Cocklebur plant response rating [3, 14]: 0; Cocklebur plant response rating [3, 13]: 0; Crabgrass plant response rating [4, 14]: 0; Crabgrass plant response rating [4, 12]: 0; Crabgrass plant response rating [4, 13]: 0
CC(C)N(C(=O)n1oc(=O)n(CCC#N)c1=O)c1ccc(F)cc1F [Compound 433]	3	0	0	0	2	2	2	6	6	8	0	0	0	2	3	0	9	9	10	10	Wheat plant response rating [1, 14]: 0; Wheat plant response rating [1, 13]: 0; Wild oats plant response rating [2, 14]: 0; Wild oats plant response rating [2, 13]: 0; Cocklebur plant response rating [3, 14]: 0; Cocklebur plant response rating [3, 13]: 0; Crabgrass plant response rating [4, 14]: 4; Crabgrass plant response rating [4, 8]: 10; Crabgrass plant response rating [4, 12]: 2; Crabgrass plant response rating [4, 13]: 2
CC(C)N(C(=O)n1oc(=O)n(CCl)c1=O)c1ccc(F)cc1F [Compound 437]	0	–	0	0	0	3	–	0	0	0	1	–	0	0	0	–	3	–	0	2	Wheat plant response rating [1, 14]: 0; Plant response rating, Wheat [1, 15]: 0; Wheat plant response rating [1, 16]: 0; Wheat plant response rating [1, 13]: 0; Wild oats plant response rating [2, 14]: 0; Plant response rating, Wild oats [2, 15]: 0; Wild oats plant response rating [2, 16]: 0; Wild oats plant response rating [2, 13]: 0; Cocklebur plant response rating [3, 14]: 0; Plant response rating, Cocklebur [3, 15]: 0; Cocklebur plant response rating [3, 16]: 0; Cocklebur plant response rating [3, 13]: 0; Crabgrass plant response rating [4, 14]: 1; Plant response rating, Crabgrass [4, 15]: 0; Crabgrass plant response rating [4, 8]: 0; Crabgrass plant response rating [4, 16]: 0; Crabgrass plant response rating [4, 13]: 1
